# In patent US20120232070A1, “Use of Indole Derivatives as Nurr-1 Activators for the Application Thereof as a Medicament for the Treatment of Parkinson's Disease” (Laboratoires Fournier SA, priority 2009, published 2012):
# Legend:
# [1] = target: hNurr1_RXRγFL (NURR1/RXRγ heterodimer) (Homo sapiens, UniProt P43354+P48443); test: Transactivation assay in Cos-7 cells, NURR-1-Gal4 / RXRγ, luciferase reporter; assay type: cell-based; conditions: for Emax: COS-7, read-out: hNurr1_RXRγFL Eff (%), efficacy in % relative to the reference XCT0135908 at 2·10^−5 M (=100%); for EC50: Cos-7 cells, overnight incubation; for hNurr1_RXRγFL Eff (%): efficacy in % relative to the reference XCT0135908 at 2·10^−5 M (=100%)
# Protocol: (§1) First, the capacity of the compounds according to the invention for acting as an activator of the heterodimers formed by the NURR-1 nuclear receptor and the RXR nuclear receptors was measured by an in vitro assay.
# (§2) A transactivation assay was used as a primary screening assay. Cos-7 cells were co-transfected with a plasmid expressing a chimera of the human receptor NURR-1-Gal4, a plasmid expressing the human receptor RXR (RXRα or RXRγ receptor) and a reporter plasmid 5Gal4pGL3-TK-Luc. The transfections were performed by means of a chemical agent (Jet PEI).
# (§3) The transfected cells were distributed in 384-well plates and left resting for 24 hours.
# (§4) After 24 hours, the culture medium was changed. The products according to the invention were added (final concentration between 10^−4 and 3·10^−10 M) to the culture medium. After overnight incubation, luciferase expression was measured after addition of “SteadyGlo” according to the manufacturer's instructions (Promega).
# (§5) 4-[[6-Methyl-2-phenyl-5-(2-prop enyl)-4-pyrimidinyl]amino]-benzoic acid (called XCT0135908, which was described in the article by Wallen-Mackenzie et al. published in Genes & Development 17, pages 3036-3047) at 2·10^−5 M (RXR agonist) was used as reference.
# (§6) The levels of induction (designated by “efficiency”) were calculated relative to the baseline activity of each heterodimer. The results were expressed as a percentage of the level of induction relative to the level of induction obtained with the reference (the level of induction of the reference is arbitrarily taken to be 100%).
# [2] = target: hNurr1_RXRαFL (NURR1/RXRα heterodimer) (Homo sapiens, UniProt P19793+P43354); test: Transactivation assay in Cos-7 cells, NURR-1-Gal4 / RXRα, luciferase reporter; assay type: cell-based; conditions: for Emax: COS-7, read-out: hNurr1_RXRαFL Eff (%), efficacy in % relative to the reference XCT0135908 at 2·10^−5 M (=100%); for EC50: Cos-7 cells, overnight incubation; for hNurr1_RXRαFL Eff (%): efficacy in % relative to the reference XCT0135908 at 2·10^−5 M (=100%)
# Protocol: as §1, §2, §3, §4, §5, §6
# Sequence of hNurr1_RXRγFL (NURR1/RXRγ heterodimer) (P43354 328-598): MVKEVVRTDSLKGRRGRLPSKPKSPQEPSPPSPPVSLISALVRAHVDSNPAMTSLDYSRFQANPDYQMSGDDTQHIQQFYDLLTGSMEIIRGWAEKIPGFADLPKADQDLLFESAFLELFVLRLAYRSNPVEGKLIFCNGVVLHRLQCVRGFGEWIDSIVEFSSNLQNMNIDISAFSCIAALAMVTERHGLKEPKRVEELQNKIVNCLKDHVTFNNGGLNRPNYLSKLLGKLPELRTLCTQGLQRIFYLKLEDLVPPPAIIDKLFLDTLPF
# Sequence of hNurr1_RXRγFL (NURR1/RXRγ heterodimer) (P48443 whole entry, the tested form may be a part): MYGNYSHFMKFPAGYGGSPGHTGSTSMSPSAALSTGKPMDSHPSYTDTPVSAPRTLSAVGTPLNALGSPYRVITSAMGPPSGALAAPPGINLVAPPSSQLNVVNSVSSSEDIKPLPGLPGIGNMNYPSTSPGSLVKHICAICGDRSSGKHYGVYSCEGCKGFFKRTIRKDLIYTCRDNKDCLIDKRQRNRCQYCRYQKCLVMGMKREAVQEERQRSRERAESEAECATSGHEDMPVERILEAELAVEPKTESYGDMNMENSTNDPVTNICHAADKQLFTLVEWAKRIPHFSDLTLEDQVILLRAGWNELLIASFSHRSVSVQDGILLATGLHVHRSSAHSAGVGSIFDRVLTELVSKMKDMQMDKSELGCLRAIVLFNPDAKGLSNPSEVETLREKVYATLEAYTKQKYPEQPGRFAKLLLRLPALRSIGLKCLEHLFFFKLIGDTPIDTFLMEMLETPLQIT
# Sequence of hNurr1_RXRαFL (NURR1/RXRα heterodimer) (P19793 whole entry, the tested form may be a part): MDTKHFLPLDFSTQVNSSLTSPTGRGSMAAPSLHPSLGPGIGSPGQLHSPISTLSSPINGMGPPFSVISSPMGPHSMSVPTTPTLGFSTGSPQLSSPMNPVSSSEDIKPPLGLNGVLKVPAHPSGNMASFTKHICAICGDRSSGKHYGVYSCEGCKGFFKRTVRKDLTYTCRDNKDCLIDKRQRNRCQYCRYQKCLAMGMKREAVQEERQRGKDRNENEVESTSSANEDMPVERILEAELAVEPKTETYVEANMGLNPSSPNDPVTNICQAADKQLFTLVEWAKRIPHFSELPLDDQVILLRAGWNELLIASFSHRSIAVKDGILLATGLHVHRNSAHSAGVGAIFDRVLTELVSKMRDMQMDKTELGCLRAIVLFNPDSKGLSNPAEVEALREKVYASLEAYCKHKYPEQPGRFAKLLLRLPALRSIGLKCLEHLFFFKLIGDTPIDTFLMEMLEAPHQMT
# Sequence of hNurr1_RXRαFL (NURR1/RXRα heterodimer) (P43354 328-598): as the sequence (P43354 328-598) above
SMILES,Emax [1] [%],EC50 [1] [nM],Emax [2] [%],EC50 [2] [nM],hNurr1_RXRγFL Eff (%) [1] [%],hNurr1_RXRαFL Eff (%) [2] [%]
"O=C(O)c1ccc(Cc2cc3cc(Cl)ccc3n2S(=O)(=O)c2ccc3c(c2)OCCO3)cc1 [Example 157, 4-[[1-[2,3-dihydro-benzo[1,4]dioxin-6-sulfonyl]-5-(chloro)-1H-indol-2-yl]methyl]benzoic acid]",64,838,67,267,,
"CC(C)(C)c1cccc(S(=O)(=O)n2c(Cc3cccc(C(=O)O)c3)cc3cc(C(F)(F)F)ccc32)c1 [Example 8, 3-[[1-[[3-(1,1-dimethylethyl)phenyl]sulfonyl]-5-(trifluoromethyl)-1H-indol-2-yl]methyl]benzoic acid]",74,99,96,101,,
CC(C)(C)c1cccc(S(=O)(=O)n2c(C(=O)c3ccc(C(=O)O)cc3)cc3cc(C(F)(F)F)ccc32)c1 [Example 219],32,3200,57,1130,,
"O=C(O)c1ccc(Cc2cc3cc(Cl)ccc3n2S(=O)(=O)c2cccc(F)c2)cc1 [Example 154, 4-[[1-[3-fluoro-phenylsulfonyl]-5-(chloro)-1H-indol-2-yl]methyl]benzoic acid]",66,1360,68,472,,
"CC(C)c1ccc(S(=O)(=O)n2c(Cc3ccc(C(=O)O)cc3)cc3cc(C(F)(F)F)ccc32)cc1 [Example 43, 4-[[1-[[4-(1-methylethyl)phenyl]sulfonyl]-5-(trifluoromethyl)-1H-indol-2-yl]methyl]benzoic acid]",79,616,73,291,,
"O=C(O)c1ccc(Cc2cc3cc(Cl)ccc3n2S(=O)(=O)c2ccc3c(c2)OCO3)cc1 [Example 174, 4-[[1-(1.3-benzodioxol-5-ylsulfonyl)-5-chloro-1H-indol-2-yl]methyl]benzoic acid]",37,813,47,593,,
"Cc1c(Cc2nc(C(=O)O)cs2)n(S(=O)(=O)c2cccc(C(C)(C)C)c2)c2ccc(C(F)(F)F)cc12 [Example 86, 2-[[1-[[3-(1,1-dimethylethyl)-phenyl]sulfonyl]-3-methyl-5-(trifluoro-methyl)-1H-indol-2-yl]methyl]-thiazole-4-carboxylic acid]",34,1480,56,490,,
"COc1cccc(S(=O)(=O)n2c(Cc3ccc(C(=O)O)cc3)cc3cc(C(F)(F)F)ccc32)c1 [Example 13, 4-[[1-[(3-methoxyphenyl)sulfonyl]-5-(trifluoromethyl)-1H-indol-2-yl]methyl]benzoic acid]",36,528,69,207,,
"CN1CCOc2ccc(S(=O)(=O)n3c(Cc4ccc(C(=O)O)cc4)cc4cc(C(F)(F)F)ccc43)cc21 [Example 45, 4-[[1-[(3,4-dihydro-4-methyl-2H-1,4-benzoxazin-6-yl)sulfonyl]-5-(trifluoromethyl)-1H-indol-2-yl]methyl]benzoic acid]",50,201,70,97,,
"CC(C)c1cccc(S(=O)(=O)n2c(Cc3ccc(C(=O)O)cc3)cc3cc(N4CCCC4)ccc32)c1 [Example 116, 4-[[1-[[3-(1-methylethyl)phenyl]sulfonyl]-5-(pyrrolidin)-1H-indol-2-yl]methyl]benzoic acid]",,1440,,871,50,74
CC1(C)COc2ccc(S(=O)(=O)n3c(Cc4ccc(C(=O)O)cc4)cc4cc(Cl)ccc43)cc21 [Example 183],,95,,47,91,80
"COc1ccc(S(=O)(=O)n2c(Cc3ccc(C(=O)O)cc3)cc3cc(C(F)(F)F)ccc32)cc1 [Example 138, 4-[[1-[4-methoxy-phenylsulfonyl]-5-(trifluoromethyl)-1H-indol-2-yl]methyl]benzoic acid]",28,583,41,344,,
"Cc1cc(S(=O)(=O)n2c(Cc3ccc(C(=O)O)cc3)cc3cc(C(F)(F)F)ccc32)ccc1Cl [Example 121, 4-[[1-[4-chloro-3-methyl-phenylsulfonyl]-5-(trifluoromethyl)-1H-indol-2-yl]methyl]benzoic acid]",56,433,65,192,,
"O=C(O)c1ccc(Cc2cc3cc(C(F)(F)F)ccc3n2S(=O)(=O)c2ccc(OC(F)F)c(Cl)c2)cc1 [Example 124, 4-[[1-[3-chloro-4-difluoromethoxy-phenylsulfonyl]-5-(trifluoromethyl)-1H-indol-2-yl]methyl]benzoic acid]",44,697,59,349,,
"O=C(O)c1cncc(Cc2cc3cc(Cl)ccc3n2S(=O)(=O)c2ccc3c(c2)OCCO3)c1 [Example 213, 3-[[1-[(2,3-dihydro-benzo[1,4]dioxin-6-yl)sulfonyl]-5-chloro-1H-indol-2-yl]methyl]-5-pyridine carboxylic acid]",31,> 10000,45,3000,,
"CN1CCOc2ccc(S(=O)(=O)n3c(Cc4ccc(C(=O)O)c(Cl)c4)cc4cc(C(F)(F)F)ccc43)cc21 [Example 211, 4-[[1-[[4-methyl-3,4-dihydro-2H-benzo[1,4]oxazin-6-yl]-sulfonyl]-5-trifluoromethyl-1H-indol-2-yl]methyl]-2-chlorobenzoic acid]",56,465,83,385,,
"CC(C)(C)c1cccc(S(=O)(=O)n2c(Cc3nc(C(=O)O)cs3)cc3cc(C(F)(F)F)ccc32)c1 [Example 89, 2-[[1-[[3-(1,1-dimethylethyl)-phenyl]sulfonyl]-5-trifluoromethyl-1H-indol-2-yl]methyl]-thiazole-4-carboxylic acid]",62,611,77,265,,
"CS(=O)(=O)n1c(Cc2ccc(C(=O)O)cc2)cc2cc(Cl)ccc21 [Example 181, 4-[[5-chloro-1-(methylsulfonyl)-1H-indol-2-yl]methyl]benzoic acid]",152,4070,111,1360,,
"CC(C)(C)c1ccc(S(=O)(=O)n2c(Cc3ccc(C(=O)O)cc3)cc3cc(C(F)(F)F)ccc32)cc1 [Example 21, 4-[[1-[[4-(1,1-dimethylethyl)phenyl]sulfonyl]-5-(trifluoromethyl)-1H-indol-2-yl]methyl]benzoic acid]",35,240,46,121,,
"CC(C)(C)c1cccc(S(=O)(=O)n2c(Cc3ccc(C(=O)NS(=O)(=O)c4ccccc4)cc3)cc3cc(C(F)(F)F)ccc32)c1 [Example 229, N-[4-[[1-[[3-(1,1-dimethylethyl)phenyl]sulfonyl]-5-(trifluoromethyl)-1H-indol-2-yl]methyl]benzoyl]-benzenesulfonamide]",70,303,60,157,,
"CCC(C)(C)c1ccc(S(=O)(=O)n2c(Cc3ccc(C(=O)O)cc3)cc3cc(C(F)(F)F)ccc32)cc1 [Example 12, 4-[[1-[[4-(1,1-dimethylpropyl)phenyl]sulfonyl]-5-(trifluoromethyl)-1H-indol-2-yl]methyl]benzoic acid]",45,148,54,113,,
"Cc1c(Cc2ccc(C(=O)O)cc2)n(S(=O)(=O)c2cccc(C(C)(C)C)c2)c2ccc(C(F)(F)F)cc12 [Example 189, 4-[[1-[[3-(1,1-dimethylethyl)phenyl]sulfonyl]-3-methyl-5-(trifluoromethyl)-1H-indol-2-yl]methyl]-benzoic acid]",90,263,83,120,,
"Cc1cccc(S(=O)(=O)n2c(Cc3ccc(C(=O)O)cc3)cc3cc(Cl)ccc32)c1 [Example 161, 4-[[5-chloro-1-[(3-methylphenyl)sulfonyl]-1H-indol-2-yl]methyl]benzoic acid]",40,584,59,460,,
"CC1(C)CCc2ccc(S(=O)(=O)n3c(Cc4ccc(C(=O)O)cc4)cc4cc(Cl)ccc43)cc2O1 [Example 173, 4-[[5-chloro-1-[(3,4-dihydro-2,2-dimethyl-2H-1-benzopyran-7-yl)sulfonyl]-1H-indol-2-yl]methyl]-benzoic acid]",73,498,78,145,,
O=C(O)c1ccc(Cc2cc3cc(Cl)ccc3n2S(=O)(=O)c2ccc3c(c2)OCCCO3)cc1 [Example 178],36,1200,45,1030,,
